A short description of data set [1]: Plasma lipids after 3 weeks s.c. administration in 30 weeks high fat diet fed mice. Type of data set: in vivo, C57BL/6J mice. The conditions noted are these: 10 nmol/kg twice daily s.c. The procedure:
The assay is an enzymatic colorimetric method. In the presence of magnesium ions, dextran sulfate selectively forms water-soluble complexes with LDL, VLDLA and chylomicrons, which are resistant to PEG-modified enzymes. The HDL cholesterol is determined enzymatically by cholesterol esterase and cholesterol oxidase coupled with PEG to the amino groups. Cholesterol esters are broken down quantitatively to free cholesterol and fatty acids. HDL cholesterol is enzymatically oxidized to choles-4-en-3-one and H2O2, and the formed H2O2 is measured colorimetrically (Cobas®; Application note HDLC3).
The direct determination of LDL takes advantage of the selective micellary solubilization of LDL by a nonionic detergent and the interaction of a sugar compound and lipoproteins (VLDL and chylomicrons). The combination of a sugar compound with detergent enables the selective determination of LDL in plasma. The test principle is the same as that of cholesterol and HDL, but due to the sugar and detergent only LDL-cholesterol esters are broken down to free cholesterol and fatty acids. Free cholesterol is then oxidized and the formed H2O2 is measured colorimetrically (Application note LDL_C, Cobas®).
The effect was measured on LDL, HDL and triglycerids (CHO: Total Cholesterol; HDL: High Density Cholesterol; LDL: Low Density Cholesterol; TRIG: Triglycerides; HDL/LDL: Ratio between HDL and LDL).

Data set [2] in a line: Liver weight/body weight of C57BL/6J mice treated for 2 weeks. In kind it is in vivo. The protocol:
Mice were treated twice daily s.c. with Cpd. 1 and Cpd. 11 (at two doses: 0.5 and 5 nmol/kg) or vehicle for 2 weeks. Throughout the study, body weights were recorded daily and used to administer the body weight-corrected doses of peptide. On the day of sacrifice, the liver was exposed, and weighed.

The nature of data set [3]: Body weight after 21 days s.c. administration in long term high fat fed mice. In kind it is in vivo. The conditions noted are these: 21 days b.i.d. s.c., 10 nmol/kg, long term high fat-fed C57BL/6J mice; p<0.05. The protocol:
(§1) Male mice (Long term high fat fed C57Bl/6J, short term high fat fed C57Bl/6J and db/db) were acclimatized with free access to food and water. They were housed in groups of 5-6 in a light-, temperature-, and humidity-controlled room (12-hour light:12-hour dark cycle, lights On/Off at 2000/0800 hour; 24° C.; 50% relative humidity).
(§2) The animals were injected s.c. with 100 μl vehicle (once a day) for a period of three days to acclimatize the animals to handling and injections. Blood samples were taken from the eye or from the tip of the tail. The animals were randomized before treatment.
(§3) Mice were treated twice daily s.c. with GluGLP-1 agonist or vehicle (injection volume=2.5 ml/kg). Throughout the study, body weights were recorded daily and used to administer the body weight-corrected doses of peptide. Peptide solutions were prepared fresh immediately before dosing.
Effect of 21 days s.c. administration of compound 11 on body weight was determined in long term high fat-fed C57BL/6J mice. C57Bl/6J male mice on high fat diet (HFD) were treated (b.i.d.; s.c.) with compound 11 (10 nmol/kg) or vehicle. Body weights were recorded daily and used to administer the body weight-corrected doses of peptide throughout the study. Data are shown as mean±SEM in FIG. 4.

A short description of data set [4]: Pharmacokinetic screening in mouse plasma after subcutaneous administration. In kind it is in vivo. As to conditions: sc, mice, 100 nmol/kg s.c., * = only two time points used for calculation. The protocol: Mice were dosed 100 nmol/kg subcutaneously (s.c.). The mice were sacrificed and the blood collected at the following time points; 0.5, 2, 4, 6, 16 and 24 h. Plasma samples were analyzed using protein precipitation, followed by solid phase extraction (SPE) and liquid chromatography mass spectrometry (LC-MS).
Pharmacokinetic profiles were determined for various acylated compounds.

A short description of data set [5]: Body weight gain in high fat fed C57BL/6J mice (10 days). In kind it is in vivo. As to conditions: 5 nmol/kg b.i.d. s.c., short term high fat-fed C57BL/6J mice. The protocol:
C57Bl/6J male mice, 6 weeks old, were acclimatized in their new environment for 4 weeks with free access to high fat diet (HFD) (D12492, Research Diet Inc., New Brunswick, USA) and water. The animals were injected s.c. with 100 μl vehicle for a period of three days to acclimatize the animals to handling and injections, prior to initiation of peptide treatment. […] Throughout the study, body weights were recorded daily and used to administer the body weight-corrected doses of peptide. All animals were sacrificed on the same day by cervical dislocation.
C57Bl/6J male mice on high fat diet (HFD) were treated (b.i.d.; s.c.) (0.5 and 5 nmol/kg) or vehicle. Body weights were recorded daily and used to administer the body weight-corrected doses of peptide throughout the study. Data are shown as mean±SEM in FIG. 7.

A short description of data set [6]: HbA1c in db/db mice after 28 days. In kind it is in vivo. As to conditions: 4 weeks, 12.7 nmol/kg, P=0.03 Students t-test. The protocol:
as §1, §2
Mice were treated twice daily s.c. with GluGLP-1 agonist or vehicle (injection volume=2.5 ml/kg). Throughout the study, body weights were recorded daily and used to administer the body weight-corrected doses of peptide. Peptide solutions were prepared fresh immediately before dosing. […]
The HbA1c determination is based on Turbidimetric INhibition ImmunoAssay (TINIA) in which HbA1c in the sample reacts with anti-HbA1c to form soluble antigen-antibody complexes. Additions of polyhaptens react with excess anti-HbA1c antibodies to form an insoluble antibody-polyhapten complex, which can be measured turbidimetrically. Liberated hemoglobin in the hemolyzed sample is converted to a derivative having a characteristic absorption spectrum, which is measured bichromatically during the preincubation phases. […]

Data set [7] can be described thus: Oral glucose tolerance test after 21 days s.c. administration in long term high fat fed mice. In kind it is in vivo. The conditions noted are these: 10 nmol/kg, long term high fat-fed C57BL/6J mice, two way ANOVA. The procedure:
as §1, §2, §3
Oral glucose tolerance tests (OGTT) were performed after subjecting the animals to a short fast. To prevent confounding food intake, the animals were kept fasted during the OGTTs. After peptide dosing an initial blood sample was taken. […] The whole blood glucose (BG) was measured at t=15 min, t=30 min, t=60 min, t=90 min and t=120 min.
The BG concentration was analyzed by the immobilized glucose oxidase method using a drop of blood (<5 μl; Elite Autoanalyser, Bayer, Denmark) following the manufacturer's instructions. […]

This is an account of results in patent US10004786B2 (Zealand Pharma A/S, priority 2009, dated 2018).

Numbered stars: 1 amine (or outer) side, 2 acyl side, 3 side chain; on linkers, the order of the positions; unused ones are H or OH. Square brackets hold non-standard residues; d marks the D form. Side chains are listed from the residue outwards. Peptide text beside a SMILES is read from it. * marks the point of attachment. γGlu = O=C(O)[C@H](CCC(=O)[*:2])N[*:1]; Palmitoyl = CCCCCCCCCCCCCCCC(=O)*; Aib = CC(C)(N)C(=O)O

As usually defined, the half-life is the time needed for the level to fall by half in the phase considered.

On to `CCCCCCCCCCCCCCCC(=O)N[C@@H](CCC(=O)NCCCC[C@H](NC(=O)[C@H](CO)NC(=O)[C@H](CC(=O)O)NC(=O)[C@H](CC(C)C)NC(=O)[C@H](Cc1ccc(O)cc1)NC(=O)[C@H](CCCCN)NC(=O)[C@H](CO)NC(=O)[C@H](Cc1ccc(O)cc1)NC(=O)[C@H](CC(=O)O)NC(=O)[C@H](CO)NC(=O)[C@@H](NC(=O)[C@H](Cc1ccccc1)NC(=O)[C@@H](NC(=O)CNC(=O)[C@H](CCC(N)=O)NC(=O)C(C)(C)NC(=O)[C@@H](N)Cc1c[nH]cn1)[C@@H](C)O)[C@@H](C)O)C(=O)N[C@@H](C)C(=O)N[C@@H](C)C(=O)N[C@@H](Cc1c[nH]cn1)C(=O)N[C@@H](CC(=O)O)C(=O)N[C@@H](Cc1ccccc1)C(=O)N[C@H](C(=O)N[C@@H](CCC(=O)O)C(=O)N[C@@H](Cc1c[nH]c2ccccc12)C(=O)N[C@@H](CC(C)C)C(=O)N[C@@H](CC(C)C)C(=O)N[C@@H](CCCNC(=N)N)C(=O)N[C@@H](C)C(N)=O)C(C)C)C(=O)O` [Compound 11] (H-H[Aib]QGTFTSDYSKYLDSK([γGlu-Palmitoyl])AAHDFVEWLLRA-NH2), for which, in data set [1] (P<0.001), the HDL entry is listed as “significantly decreased”, the LDL result is “significantly decreased” and the “cholesterol (total)” value is given as “significantly decreased”. In addition, the triglycerides result in data set [1] (P<0.05) is reported as “significantly decreased”. Further, in data set [1] (p<0.001), the “ratio HDL/LDL” value is “increased significantly”. Also, the “liver weight/body weight ratio, low dose” value in data set [2] (0.5 nmol/kg twice daily s.c.) is “did not affect”. For the same molecule, the “liver weight/body weight ratio, high dose” value in data set [2] (5 nmol/kg twice daily s.c.) is given as “did not affect”. Also, the “change in liver size” value in data set [2] (repeated treatment, C57 healthy control mice, compared with compound 1) is given as “do not give rise to change in liver size”. Besides, in data set [3], the body weight entry was “significantly decreased body weight”. Moreover, the half-life in data set [4] is 4.9 h. Moreover, the “body weight gain, high dose” value in data set [5] is “significantly decreased body weight gain at the high dose”. Moreover, in data set [6], the “ΔHbA1c (%) compared to vehicle” value is “decreased ΔHbA1c (%) significantly”. In data set [7], the oral glucose tolerance entry is on record as “significantly improved glucose tolerance”.
